{
  "source": "patent US20250041574A1",
  "about": "(TARIS Biomedical LLC, priority 2022, published 2025)",
  "key": {"[1]": {"conditions": "dynamic vapor sorption"}, "[2]": {"test": "not given", "remark": "listed apart in the source"}, "[3]": {"conditions": "rat, in vivo", "excerpt": "Rat bladders (5 groups of rats, n=3/group) were surgically catheterized under anesthesia and the catheter was externalized, tunneled subcutaneously, and connected to a vascular access harness (VAH) in the neck. Rats were transferred to individual metabolic cages with free access to food and water during the 1-week post-surgery recovery period. […] Plasma and bladder samples were collected at all time points."}, "[4]": {"test_system": "RT-112 orthotopic bladder tumor", "test": "Continuous bladder perfusion in athymic rats with orthotopic RT-112 bladder tumors"}, "[5]": {"test": "Stability in minipig urine", "assay_type": "in vitro ADME", "conditions": "freshly collected minipig urine, 37° C., 6 hours", "procedure": "(§1) At the end of 6-hours post-dialysis incubation, drug was analyzed, and the recovery was calculated against the spiked concentrations."}, "[6]": {"test": "In vitro protein binding in human urine", "assay_type": "in vitro ADME", "procedure": "(§2) Albuminuria/proteinuria had minimal effect on % free form in urine.\nas §1"}, "Stability in human urine": {"test": "Stability in human urine", "assay_type": "in vitro ADME", "conditions": "freshly collected human urine, 37° C., 6 hours", "procedure": "as §1"}, "Stability in rat urine": {"test": "Stability in rat urine", "assay_type": "in vitro ADME", "conditions": "freshly collected rat urine, 37° C., 6 hours", "procedure": "as §1"}, "[7]": {"conditions": "urine", "quoted_text": "On Day −7 a catheter was surgically placed in the bladder of each animal. The distal end of the catheter was anchored to a subcutaneous site and attached to a vascular access port (VAP). The port was secured, and the animals were allowed to recover. Each animal was subsequently fitted with a portable infusion pump that was attached to the bladder catheter via the VAP. […] All excreted urine was collected in 24-hour intervals through Day 6 or 8. Blood samples were collected daily on study Days 1 to 8. Bladder tissue samples were collected from each animal at necropsy."}, "[8]": {"test_system": "UM-UC-1 orthotopic bladder tumors", "test": "Continuous bladder perfusion in athymic rats with orthotopic UM-UC-1 bladder tumors", "procedure": "Perfusion studies: The bladders of the study animals were cannulated on Day 1 and the animals were allowed to recover for 3 days. On Day 5, UM-UC-1 cells (2×10^6 cells) were injected into the lateral wall of each bladder. […] Based on the in vitro results, target urine concentrations of 0.5, 1.0, and 5.0 μg/mL were used in the perfusion experiments. Body weight, daily urine production, and daily water consumption were recorded. At necropsy, a plasma sample, bladder photographs, and bladder weight measurements were recorded.\nThe percent reduction in relative tumor weight between the control group and the drug perfusion groups was determined as an initial measure of efficacy. Bladder tissue and tumor samples were also submitted for analysis of FGFR signaling activity by determining the phosphorylated fibroblast growth factor receptor substrate (FRS)2a levels and the pERK to ERK ratio."}, "[9]": {"test": "In vitro protein binding in minipig urine", "assay_type": "in vitro ADME", "procedure": "as §2, §1"}, "[10]": {"test": "In vitro protein binding in rat urine", "assay_type": "in vitro ADME", "procedure": "as §2, §1"}},
  "note": "Like-named read-outs stand apart in the source and are kept apart here.",
  "data": [
    {"smiles": "COc1cc(OC)cc(N(CCNC(C)C)c2ccc3ncc(-c4cnn(C)c4)nc3c2)c1.C[C@H](O)C(=O)O", "note": "[Erdafitinib L-lactate salt]", "values": [
      {"measurement": "In Vitro Permeation", "setting": "EVA (CoTran 9712)", "result": "◯"},
      {"measurement": "In Vitro Permeation", "setting": "TPU (EG-80A)", "result": "Δ"},
      {"measurement": "In Vitro Permeation", "setting": "TPU (HP-60D-35)", "result": "◯"},
      {"measurement": "In Vitro Permeation", "setting": "TPU (HP-93A-100)", "result": "◯"},
      {"measurement": "DVS", "setting": "[1]", "result": "Non-hygroscopic"},
      {"measurement": "solubility", "setting": "[2]; as function of pH in water and simulated urine at 37° C.", "result": "very high solubility over a broad pH range"}
    ]},
    {"smiles": "COc1cc(OC)cc(N(CCNC(C)C)c2ccc3ncc(-c4cnn(C)c4)nc3c2)c1", "note": "[erdafitinib, N-(3,5-dimethoxyphenyl)-N′-(1-methylethyl)-N-[3-(1-methyl-1H-pyrazol-4-yl)quinoxalin-6-yl]ethane-1,2-diamine]", "values": [
      {"measurement": "AUC0-120h", "setting": "[3]; female, Sprague-Dawley, 0.72 mg", "result": "127,000 ng · h/mL"},
      {"measurement": "C96h", "setting": "[3]", "result": "BQL"},
      {"measurement": "C120h", "setting": "[3]", "result": "BQL"},
      {"measurement": "bladder weight vs vehicle control", "setting": "[4]; 1.0 μg/mL perfusate concentration, p<0.05", "result": "significant bladder weight reduction"},
      {"measurement": "bladder weight decrease vs vehicle control", "setting": "[4]; 0.25 and 0.5 μg/mL dose groups", "result": "not statistically significant"},
      {"measurement": "percentage change in body weight vs vehicle control", "setting": "[4]; 0.5, 1.0 and 5.0 μg/mL treatment groups (so in the source), except Group 4 on Day 11 (p<0.05)", "result": "Statistically non-significant difference"},
      {"measurement": "body weight loss, maximum mean values", "setting": "[4]; erdafitinib-treated group, Day 11", "result": "up to −3%"},
      {"measurement": "stability in urine", "setting": "[5]", "result": "sufficiently stable"},
      {"measurement": "In Vitro Permeation", "setting": "EVA (CoTran 9712)", "result": "Δ"},
      {"measurement": "In Vitro Permeation", "setting": "TPU (EG-80A)", "result": "Δ"},
      {"measurement": "In Vitro Permeation", "setting": "TPU (HP-60D-35)", "result": "◯"},
      {"measurement": "In Vitro Permeation", "setting": "TPU (HP-93A-100)", "result": "◯"},
      {"measurement": "Percent erdafitinib free in urine", "setting": "[6]", "result": 95, "unit": "%"},
      {"measurement": "stability in urine", "setting": "Stability in human urine", "result": "sufficiently stable"},
      {"measurement": "stability in urine", "setting": "Stability in rat urine", "result": "sufficiently stable"},
      {"measurement": "Daily erdafitinib recoveries, of the average daily amount administered", "setting": "[7]", "result": 15.7, "unit": "%"},
      {"measurement": "DVS", "setting": "[1]", "result": "Non-hygroscopic"},
      {"measurement": "bladder weight vs vehicle control", "setting": "[8]; 0.5 (p<0.01), 1.0 and 5 μg/mL (p<0.001) nominal urine concentrations, 5 days perfusion", "result": "significant dose-related decrease"},
      {"measurement": "percentage change in body weight vs vehicle control", "setting": "[8]; 0.5, 1.0 and 5.0 μg/mL treatment groups", "result": "Statistically non-significant difference"},
      {"measurement": "cage side observations", "setting": "[8]; 5 days continuous perfusion, 0.5, 1.0, 5.0 μg/mL, any treatment group", "result": "no visible signs of abnormal behavior or clinical symptoms"},
      {"measurement": "Percent erdafitinib free in urine", "setting": "[9]", "result": 97, "unit": "%"},
      {"measurement": "Percent erdafitinib free in urine", "setting": "[10]", "result": 84, "unit": "%"},
      {"measurement": "solubility", "setting": "[2]; normal urine pH range of 5.5 to 7", "result": "significant pH-dependent solubility"}
    ]}
  ]
}
